Test results reported in patent US20010019728A1 (priority 1997, published 2001).
Where “and” joins values, the source holds several entries; their conditions need not be identical. Identical values can stand only once.

Columns and labels:
Conditions in all cases: in vivo
[1] = system: total plant-parasitic nematode population
Tylenchorhynchus spp. = system: Tylenchorhynchus spp.
Xiphinema index = system: Xiphinema index
[2] = system: dagger nematode (Xiphinema index+Xiphinema americanum)
Xiphinema americanum = system: Xiphinema americanum
Nonparasitic nematodes = system: Nonparasitic nematodes
Fusarium oxysporum = system: Fusarium oxysporum

SMILES: CCOP(=O)(NC(C)C)Oc1ccc(SC)c(C)c1 (stereo not shown) [FENAMIPHOS®, FENAMIPHOS]
- Plant-parasitic Nematode Population: Total [1]: 80.00a per 250 cc soil and 94.00a per 250 cc soil and 105.80a per 250 cc soil
- decrease in overall total plant-parasitic nematode population relative to the untreated control [1]: 30% and 31%
- decrease in overall total plant-parasitic nematodes populations relative to the untreated control [1]: 51%
- reduction in group nematode population without considering the Helicotylenchus nematode species [1]: 12%
- Plant-parasitic Nematode Population: Tylenchorhynchus spp. (Tylenchorhynchus spp.): 0.00a per 250 cc soil
- Plant-parasitic Nematode Population: Xiphinema index (Xiphinema index): 30.00a per 250 cc soil
- population increase in the soil Xiphinema index populations relative to the untreated control (Xiphinema index): 30%
- reduction of Xiphinema index populations (Xiphinema index): 84%
- reduction in the dagger nematode (Xiphinema index+Xiphinema americanum) populations relative to T5 [2]: 73%
- Plant-parasitic Nematode Population: Xiphinema americanum (Xiphinema americanum): 10.00a per 250 cc soil and 9.00a per 250 cc soil and 5.40a per 250 cc soil
- decrease in the Xiphinema americanum populations relative to the untreated control (Xiphinema americanum): no effect
- decrease of the Xiphinema americanum population relative to T5 (Xiphinema americanum): not controlled

SMILES: C#CCBr [Propargyl Bromide, Propargyl bromide]
- Nonparasitic nematodes (Nonparasitic nematodes): 1,304a Nematodes/250 cc soil and 1,600cd Nematodes/250 cc soil
- Fusarium oxysporum (Fusarium oxysporum): 1.26d Log (cfu/g soil) and 1.10cd Log (cfu/g soil)

SMILES: CNC(=S)[S-].[Na+] [Metham Sodium 1X, Metham sodium]
- Nonparasitic nematodes (Nonparasitic nematodes): 944a Nematodes/250 cc soil and 651d Nematodes/250 cc soil

SMILES: CI [Methyl Iodide 0.5X, Methyl iodide]
- Fusarium oxysporum (Fusarium oxysporum): 3.79a Log (cfu/g soil) and 3.44a Log (cfu/g soil)
